Tested on: immobilized GST-tagged bait protein domains
Experiment: ProP-PD phage selections (HD2 P8, sublibraries, HD2 P3, HD1 P8) with NGS and confidence level
Type: binding, human
Settings: for HD2_nucleus confidence: library HD2 P8 nucleus
[1] = library HD2, bait YAP1_WW_1_P46937_169_207, validated benchmark motif instance, in_library_check TRUE, TRUE/FALSE = instance recovered in ProP-PD selection
[2] = library HD2, bait EPS15_EH__P42566_121_215, whether the validated benchmark motif instance was recovered in the ProP-PD selection (TRUE/FALSE)
[3] = library HD2, bait Keap1_KELCH__Q14145_321_609, whether the validated benchmark motif instance was recovered in the ProP-PD selection (TRUE/FALSE)
[4] = HD2 library, bait SUMO1_SUMO__P63165_1_101, known motif instance of the benchmarking set found (TRUE) or not found (FALSE) among selected peptides
[5] = bait MAP1LC3B_ATG8 (Q9GZQ8 2-119), HD2 library, benchmark motif instance recovered in the ProP-PD selection (TRUE/FALSE)
[6] = HD2 library, bait TLN1_PTB__Q9Y490_309_401, known motif instance of the benchmarking set found (TRUE) or not found (FALSE) among selected peptides
[7] = bait MAP1LC3A_ATG8 (Q9H492 2-121), HD2 library, benchmark motif instance recovered in the ProP-PD selection (TRUE/FALSE)
[8] = bait PABP-B_PABP__P11940_544_623, HD2 library, confidence level (1-4) of best matching selected peptide
[9] = bait PABP-B_PABP__P11940_544_623, HD2 library, specificity score of best matching selected peptide
[10] = bait PABP-B_PABP__P11940_544_623, HD2 library, whether the validated benchmark motif instance was recovered in the ProP-PD selection (TRUE/FALSE)
[11] = library HD2, bait WDR5_WD_1234567_P61964_21_334, validated benchmark motif instance, in_library_check TRUE, TRUE/FALSE = instance recovered in ProP-PD selection
[12] = bait CALM1_EF-hand__P0DP23_2_149, library HD2, benchmarking set of validated motif instances, TRUE = motif instance recovered in the ProP-PD selection
[13] = HD2 library, bait CALM1_EF-hand__P0DP23_2_149, benchmark motif instance, in_library_check FALSE, in_library_coverage 0

GHSPPPAYTPMSGNQF
best_confidence (library HD2, bait YAP1_WW_1_P46937_169_207, confidence level of best matching selected peptide (4 High, 2-3 Medium, 1 Low)): 3
best_specificity (library HD2, bait YAP1_WW_1_P46937_169_207, specificity score of best matching selected peptide): 1
motif_found [1]: TRUE

GHSSRTSPLDNVGREL
HD2_nucleus confidence (bait WDR5_WD_1234567_P61964_21_334): 4

GLAFGAFTNPFTAPAAQSP
motif_found [2]: FALSE

GMEHRGPPPEYPFKGMPP
motif_found (bait NEDD4_WW_4_P46934_890_928, HD2 library, whether the validated benchmark motif instance was recovered in the ProP-PD selection (TRUE/FALSE)): FALSE
motif_found [1]: FALSE

GNVIRWHNQETGEQIAIKQC
motif_found [3]: FALSE

GPLRPVLEYIDLVSSDDEEPSTSYTD
motif_found [4]: FALSE

GPPSLNYIPPVLQLSG
best_specificity (bait CEP55_EABR__Q53EZ4_160_217, library HD2, best matching peptide): 1
best_confidence (bait CEP55_EABR__Q53EZ4_160_217, library HD2, confidence level of best matching peptide (4 = High, 2 or 3 = Medium, 1 = Low)): 2

GPTPTEPPPPYSFRPE
HD2_cytoplasm confidence (bait NEDD4_WW_4_P46934_890_928, HD2 P8 cytoplasm sublibrary, confidence level (4 = High, 2-3 = Medium, 1 = Low)): 4

GQSLKVMPCLAPIAAKVGS
motif_found (library HD2, bait ZMYND11_coiled-coil-MYND__Q15326_480_602, validated benchmark motif instance, in_library_check TRUE, TRUE/FALSE = instance recovered in ProP-PD selection): FALSE

GRAQAEQWAAEFIQQQGTS
motif_found (bait PEX14_Pex14__O75381_16_84, HD2 library, whether the validated benchmark motif instance was recovered in the ProP-PD selection (TRUE/FALSE)): FALSE

GRDSPPSWRPQPDGEASQTEDV
motif_found (HD2 library, bait TNKS_TANK-peptide-bind__O95271_174_649, known motif instance of the benchmarking set found (TRUE) or not found (FALSE) among selected peptides): FALSE

GSSGNTHDDFVMIDFKPAFS
motif_found [5]: FALSE

GTNPTLVSVPNPVFGSDTFCEP
motif_found [6]: FALSE

GYRQSPDGACSV,YRQSPDGACS,LRNSATGYRQSPDGACSVPSAR,YRQSPDGACSV [LNPEP 95-102]
motif_found (HD2 library, bait TNKS_TANK-peptide-bind__O95271_174_649, benchmark motif instance, in_library_check FALSE, in_library_coverage 0): FALSE

HDDFVMIDFKPAFSKD
motif_found [7]: TRUE
best_confidence (bait MAP1LC3A_ATG8 (Q9H492 2-121), HD2 library, confidence level (1-4) of best matching peptide): 3
best_specificity (bait MAP1LC3A_ATG8 (Q9H492 2-121), HD2 library, specificity score of best matching peptide): 1

HLNNDSSTTIIIDSSDETTESPTVGTAQ
motif_found [4]: FALSE

HPAPSWVAFAHTGAWG
HD2 confidence (bait AP2B1_adaptin__P63010_700_937, HD2 P8 selection, non primary paralogue peptide match, confidence level -4 to 4: 4 = High, 3 or 2 = Medium, 1 = Low, 0 = Filtered/Noise): 3

HTPRLPTLPKRVP,RRAFWHTPRLPTLPKRVPRAGEAR [CCDC8]
motif_found (bait ANKRA2_Ank__Q9H9E1_142_313, library HD2, benchmarking set of validated motif instances, TRUE = motif instance recovered in the ProP-PD selection): FALSE

IIYDRKFLMECRNSPV
best_specificity (library HD2, bait EIF4E_eIF4E__P06730_1_217, best matching peptide): 1
best_confidence (library HD2, bait EIF4E_eIF4E__P06730_1_217, confidence level of best matching peptide (4 High, 2-3 Medium, 1 Low)): 2
motif_found (library HD2, bait EIF4E_eIF4E__P06730_1_217, whether the validated benchmark motif instance was recovered in the ProP-PD selection (TRUE/FALSE)): TRUE

ILSKSNLNPDAKEFIP
best_confidence [8]: 2
best_specificity [9]: 1
motif_found [10]: TRUE

IPDTPSPTVSVITISSDTDE
motif_found [4]: FALSE

IPSAPLYEEITYSGIS
best_specificity (HD2 library, bait TSG101_UEV__Q99816_1_145, best matching selected peptide): 1
best_confidence (HD2 library, bait TSG101_UEV__Q99816_1_145, confidence level of best matching selected peptide): 3
motif_found (HD2 library, bait TSG101_UEV__Q99816_1_145, known motif instance of the benchmarking set found (TRUE) or not found (FALSE) among selected peptides): TRUE

IQPDSPAPNPFSEEDEHPQ
motif_found [2]: FALSE

IREHVTGCARSEGFYTIDKKD
motif_found [11]: FALSE

IYKSAVTTVVNPKYEGK----- [ITGB1 789-796]
motif_found (HD2 library, bait TLN1_PTB__Q9Y490_309_401, benchmark motif instance, in_library_check FALSE, in_library_coverage 0): FALSE

KATVEKPSNPFSGDLQKTF
motif_found [2]: FALSE

KDKEEVQRKRQKLMPNFSDS,IKDKEEVQRKRQKLMPNFSD [NFKB1 361-365]
motif_found (HD2 library, bait KPNA4_Arm__O00629_68_487, benchmark motif instance, in_library_check FALSE, in_library_coverage 0): FALSE

KDLATVNSNPFDDPDAAEL
motif_found [2]: FALSE

KEPGGSRAHSSHLKSKKGQ
motif_found (library HD2, bait USP7_MATH-TRAF__Q93009_53_206, validated benchmark motif instance, in_library_check TRUE, TRUE/FALSE = instance recovered in ProP-PD selection): FALSE

KILRLSGKP
motif_found (bait MAD2L1_HORMA (Q13257 1-205), HD2 library, benchmark motif instance recovered in the ProP-PD selection (TRUE/FALSE)): FALSE

KISPPTPKPRPPRPLPVAPGS
motif_found (library HD2, bait YES1_SH3__P07947_90_152, validated benchmark motif instance, in_library_check TRUE, TRUE/FALSE = instance recovered in ProP-PD selection): FALSE

KKAFVHMPTLPNLDFHKTGDGL
motif_found (library HD2, bait ANKRA2_Ank__Q9H9E1_142_313, motif instance NOT in library (in_library_check FALSE, in_library_coverage 0)): FALSE

KKKATFRAITSTLASSFKRR [GRIN1]
motif_found [12]: FALSE

KKRFSFKKSFKLSGFSFK [MARCKS]
motif_found [12]: FALSE

KLSKLDVLLLATTYIA
HD2_nucleus confidence (bait SIN3A_PAH__Q96ST3_295_383): 4

KMNAKWDTGENPIYKSAVTTVV
motif_found [6]: FALSE

KNSSCDTDDFVLVPHNISSD
motif_found [7]: FALSE
motif_found [5]: FALSE

KRRWKKNFIAVSAANRFKKISSSGAL [MYLK2]
motif_found [12]: FALSE

KSTLNPNAKEFNPRSF
best_confidence [8]: 2
best_specificity [9]: 1
motif_found [10]: TRUE

KTAEKSDFEAVEALMSMSCSWKSD [KLF10 39-48]
motif_found (HD2 library, bait SIN3A_PAH__Q96ST3_295_383, benchmark motif instance, in_library_check FALSE, in_library_coverage 0): FALSE

LAVNPTGCARSEPKMSAHVKR
motif_found [11]: FALSE

LAYLRSHKDEVVKIQSLARMHQARKRYRDRLQYF [IQGAP1 806-825]
motif_found [13]: FALSE

LDEAFSRLAQSRTNPQ
best_specificity (bait AP2B1_adaptin__P63010_700_937, library HD2, best matching peptide): 1
best_confidence (bait AP2B1_adaptin__P63010_700_937, library HD2, confidence level of best matching peptide (4 = High, 2 or 3 = Medium, 1 = Low)): 2

LDPDKPTNFTNPVYATLYMGGH
motif_found [6]: FALSE

LELDRLMASLSDFRVQ
best_confidence (bait PTK2_Focal-AT__Q05397_891_1050, HD2 library, confidence level (1-4) of best matching selected peptide): 2
best_specificity (bait PTK2_Focal-AT__Q05397_891_1050, HD2 library, specificity score of best matching selected peptide): 1
motif_found (bait PTK2_Focal-AT__Q05397_891_1050, HD2 library, whether the validated benchmark motif instance was recovered in the ProP-PD selection (TRUE/FALSE)): TRUE

LETKVFPRPVLPSLTV
p3_HD2 confidence (bait ANKRA2_Ank__Q9H9E1_142_313, library HD2 P3): 2
p3_HD2 count proportions (bait ANKRA2_Ank__Q9H9E1_142_313, library HD2 P3, mean normalised NGS counts): 0.06348
p3_HD2 mean counts (bait ANKRA2_Ank__Q9H9E1_142_313, library HD2 P3, mean raw NGS counts, all selections): 1066
HD2 confidence (bait ANKRA2_Ank__Q9H9E1_142_313, library HD2 P8): 4
HD2_nc confidence (bait ANKRA2_Ank__Q9H9E1_142_313, library HD2 P8 nucleocytoplasmic): 3
HD2_nc count proportions (bait ANKRA2_Ank__Q9H9E1_142_313, library HD2 P8 nucleocytoplasmic, mean normalised NGS counts): 0.1009
HD2_nc mean counts (bait ANKRA2_Ank__Q9H9E1_142_313, library HD2 P8 nucleocytoplasmic, mean raw NGS counts, all selections): 4420.0

LFCQNLPPPLPPKKYA
p3_HD2 confidence (bait CRK_SH3_1_P46108_124_198, HD2 P3 library, confidence level (4 = High, 2-3 = Medium, 1 = Low)): 3
p3_HD2 mean counts (bait CRK_SH3_1_P46108_124_198, HD2 P3 library, mean NGS counts over replicate selections): 10444.0
p3_HD2 count proportions (bait CRK_SH3_1_P46108_124_198, HD2 P3 library, mean proportion of NGS counts): 0.2023

LFKSATTTVMNPKFAES-----
motif_found [6]: FALSE

LHIKTHLDEETGEKTSITLD
motif_found [3]: FALSE

LINVRKRNVESGEEELASKL
motif_found [3]: FALSE

LKKLPSAVIALQRSFRSKRSKMLLEINRQK [IQCB1 321-336]
motif_found [13]: FALSE

LKNINSINFDNPVYQKTTEDEV
motif_found [6]: FALSE

LKVLVKAVLFACMLMRK
motif_found (library HD2, bait CALM1_EF-hand__P0DP23_2_149, motif instance NOT in library (in_library_check FALSE, in_library_coverage 0)): FALSE

LLSIHKVYEAVELLKSNHFYR [GEMIN5 992-998]
motif_found (HD2 library, bait EIF4E_eIF4E__P06730_1_217, benchmark motif instance, in_library_check FALSE, in_library_coverage 0): FALSE

LMINPTGCARSEPKILTHYKR
motif_found [11]: FALSE

Source: publication PMC8769072, “Proteome‐scale mapping of binding sites in the unstructured regions of the human proteome” (Molecular Systems Biology, 2022)
